Results taken from ChEMBL document CHEMBL5729744, “Granzyme B directed imaging and therapy” (2023).

Target: Granzyme B (Homo sapiens, UniProt P10144)
Assay: Biochemical Assay: Buffer pH7.4: Prepare 1 (M) KH2PO4 and 1 (M) K2HPO4. Titrate 1(M) K2HPO4 with 1 (M) KH2PO4 to obtain pH 7.40. Dilute this buffer 10 fold in Water (30 ml buffer+270 ml of water) to obtain 100 mM phosphate buffer. Adjust pH to 7.40±0.02 using 5(N) HCl or 5(N) NaOH. NADPH Regeneration System (NRS): Prepare a solution containing 13 mM NADP, 33 mM Glucose-6-phosphate, 33 mM MgCl2and 4 U/ml Glucose-6-phosphate dehydrogenase in buffer. Liver Microsome (LM) suspension: Thaw LM vial on ice, then mix 1.0 ml LM (20 mg/ml) with 19 ml buffer [final LM Conc: 1 mg/ml] LM+NRS suspension: Mix 5.0 ml NRS with 20 ml LM suspension [final LM Conc: 0.8 mg/ml] System suitability standard: a synthesized compound having Mol wt 686.2 used as System suitability standard. Dissolve this compound in ice-cold acetonitrile to obtain concentration of 0.1 μg/ml and store at 4° C. Compound Dilution: Compound Stock: 10 mM in DMSO Sub stock (100 μM): 4 μl of 10 mM Compound Stock+398 μl Acetonitrile. Working plate (2 μM): 10 μl of 100 μM Sub stock+490 μl buffer Assay Procedure Incubate all plastic materials including tips at 37° C. overnight. Incubate LM suspension and NRS at 37° C. for 15 min before use. Add 40 μl buffer to the wells of blank plate. Add 40 μl compound (from working plate) to 0, 5, 10, 20, 30 and 60 min plates. Initiate reaction by adding 40 μl of LM+NRS suspension in each plate. […]

Sequence of Granzyme B (P10144 whole entry): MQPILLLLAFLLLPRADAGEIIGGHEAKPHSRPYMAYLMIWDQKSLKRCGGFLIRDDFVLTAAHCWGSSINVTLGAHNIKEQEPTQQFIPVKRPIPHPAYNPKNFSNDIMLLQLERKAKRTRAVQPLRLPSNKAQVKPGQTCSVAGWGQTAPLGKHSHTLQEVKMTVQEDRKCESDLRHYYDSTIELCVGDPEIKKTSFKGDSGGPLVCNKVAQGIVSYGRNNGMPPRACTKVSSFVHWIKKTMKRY

Compound: O=C(Cc1ccccc1)NCC(=O)N[C@H]1CCc2cccc3c2N(C1=O)[C@H](C(=O)NCc1c[nH]nn1)C3
- IC50: > 5 µM
